Laboratory results published in paper PMC5651845, “A New Generation of Arachidonic Acid Analogues as Potential Neurological Agent Targeting Cytosolic Phospholipase A2” (Scientific Reports, 2017).

Molecular target: T1, recombinant cPLA2 (Homo sapiens, UniProt P47712)
T1 construct: purchased US Biological P4074-03R
T1 sequence (P47712 1-749): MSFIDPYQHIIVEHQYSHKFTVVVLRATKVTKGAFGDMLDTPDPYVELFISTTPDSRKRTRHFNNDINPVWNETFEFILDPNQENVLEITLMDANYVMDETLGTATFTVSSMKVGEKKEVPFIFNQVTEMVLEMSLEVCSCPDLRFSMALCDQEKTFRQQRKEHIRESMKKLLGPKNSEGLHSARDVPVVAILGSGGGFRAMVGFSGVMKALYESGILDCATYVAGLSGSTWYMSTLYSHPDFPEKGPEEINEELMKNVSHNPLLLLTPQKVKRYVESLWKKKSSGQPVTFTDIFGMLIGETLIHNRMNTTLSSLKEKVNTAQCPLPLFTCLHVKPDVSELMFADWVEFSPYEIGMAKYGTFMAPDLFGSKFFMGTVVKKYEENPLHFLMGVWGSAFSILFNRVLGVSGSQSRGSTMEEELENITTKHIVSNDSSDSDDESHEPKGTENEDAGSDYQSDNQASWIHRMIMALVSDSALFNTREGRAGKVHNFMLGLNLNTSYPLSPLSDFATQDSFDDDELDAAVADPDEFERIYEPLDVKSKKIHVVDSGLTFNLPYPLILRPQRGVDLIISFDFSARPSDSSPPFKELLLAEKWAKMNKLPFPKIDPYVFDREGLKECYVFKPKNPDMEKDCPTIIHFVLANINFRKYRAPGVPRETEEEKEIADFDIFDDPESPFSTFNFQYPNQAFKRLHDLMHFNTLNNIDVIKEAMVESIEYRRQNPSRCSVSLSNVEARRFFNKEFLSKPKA
Test: EnzChek phospholipase A2 fluorogenic assay (% activity) at 10 μM
Type: biochemical
Conditions: 10 μM compound; for remaining activity at 10 µM: 1 h, room temperature
Procedure: The compounds were evaluated with a fluorogenic PLA2 assay kit (EnzChek® Phospholipase A2 Assay Kit, Catalog No: E10217) at a standard 10 μM concentration. Potential inhibitors were determined by their ability to lower cPLA2 activity to a greater extent than 1a.
The assay was conducted according to the manufacturer’s instruction (E10217, Molecular Probes) with slight modification. Briefly, substrate solution was separately prepared by mixing 5 μL of DOPG, 5 μL of DOPC and 5 μL of substrate respectively in 1.5 mL of 1X phospholipase A2 reaction buffer. The mixture was vortexed vigorously for 3 min before allowing to stand at room temperature for 1 h. 48 μL of 1X phospholipase A2 reaction buffer were added into each well of a 96-wells plate. This was followed by addition of 1 μL of recombinant cPLA2 (P4074-03R, US Biological) and 1 μL of 1 mM of the respective compound dissolved in DMSO. The final concentration of the test compound achieved is 10 μM. The reaction was initiated by adding 50 μL of the substrate solution and incubating at room temperature for 1 h. Fluorescence was measured using a Varioskan plate reader (Thermo Scientific, MA, USA) by exciting at 485 nm, while fluorescence emission was detected at 515 nm. Positive control was performed when 1 μL of test compound was replaced by vehicle DMSO. % activity was expressed as the mean value of duplicate wells from three experiments. % activity was calculated by the following formula1 %activity=fluorescenceoftestedwell−background/fluorescenceofpostivecontrol−background

SMILES | inhibition at 10 µM | remaining activity at 10 µM
CCCCC/C=C\C/C=C\C/C=C\C/C=C\CCCC(=O)NCc1ccc(C(=O)O)cc1 [2e] | 74.2% | 25.8 ± 0.1%
CCCCC/C=C\C/C=C\C/C=C\C/C=C\CCCC(=O)Nc1cccc(C(=O)O)c1 [2d] | 86.8% | 13.2 ± 1.2%
CCCCC/C=C\C/C=C\C/C=C\C/C=C\CCCC(=O)NCCCCCC(=O)O [2c] | 59.1% | 40.9 ± 1.1%
CCCCC/C=C\C/C=C\C/C=C\C/C=C\CCCC(=O)NCc1cccc(C(=O)O)c1 [2f] | 64.4% | 35.6 ± 2.1%
CCCCC/C=C\C/C=C\C/C=C\C/C=C\CCCC(=O)Nc1cccc(C(N)=O)c1 [2m] | 42.5% | 57.5 ± 1.4%
O=C(CCC/C=C\C/C=C\C/C=C\C/C=C\c1ccccc1)C(F)(F)F [1d] | 68.2% | 31.8 ± 2%
CCCCC/C=C\C/C=C\C/C=C\C/C=C\CCCC(=O)NCCCCC(=O)O [2b] | 73.3% | 26.7 ± 0.1%
CCCCC/C=C\C/C=C\C/C=C\C/C=C\CCCC(=O)Nc1cccc(S(N)(=O)=O)c1 [2p, (5Z,8Z,11Z,14Z)-N-(3-sulfamoylphenyl)icosa-5,8,11,14-tetraenamide] | 46.1% | 53.9 ± 2.7%
CCC/C=C\C/C=C\C/C=C\C/C=C\CCCCC(=O)Nc1cccc(C(=O)O)c1 [2j] | 83.5% | 16.5 ± 1.2%
CCCCC/C=C\C/C=C\C/C=C\C/C=C\CCCC(N)=O [1m, (5Z,8Z,11Z,14Z)-icosa-5,8,11,14-tetraenamide] | 39.3% | 60.7 ± 1.9%
CCCCC/C=C\C/C=C\C/C=C\C/C=C\CCCC(=O)C(F)F [1o] | 59.8% | 40.2 ± 0.5%
CCC/C=C\C/C=C\C/C=C\C/C=C\CCCCC(=O)NCCCCC(=O)O [2h] | 56.4% | 43.6 ± 0.2%
CCCCC/C=C\C/C=C\C/C=C\C/C=C\CCCC(=O)Nc1ccc(C(=O)O)cc1 [2n] | 66.7% | 33.3 ± 0.9%
CCCCC/C=C\C/C=C\C/C=C\C/C=C\CCCC(=O)C(F)(F)Cl [1n] | 50.8% | 49.2 ± 4.5%
CCCCC/C=C\C/C=C\C/C=C\C/C=C\CCCC(=O)NCCCCCC(=O)OC [20c] | 15.2% | 84.8 ± 1%
CCC/C=C\C/C=C\C/C=C\C/C=C\CCCC(=O)C(F)(F)F [1b] | 63% | 37 ± 3.9%
CCCCC/C=C\C/C=C\C/C=C\C/C=C\CCCCCC(=O)NCCCCC(=O)O [2k] | 62.3% | 37.7 ± 1.5%
CCCCCC/C=C\C/C=C\C/C=C\C/C=C\CCC(=O)C(F)(F)F [1e] | 59.5% | 40.5 ± 3.6%
CCCCC/C=C\C/C=C\C/C=C\C/C=C\CCCC(=O)NCCCC(=O)O [2a] | 60.3% | 39.7 ± 2.6%
CCCCC/C=C\C/C=C\C/C=C\C/C=C\CCCC(=O)Nc1ccc(C(N)=O)cc1 [2l] | 32.6% | 67.4 ± 5.7%
CCCCCCCC/C=C\C/C=C\C/C=C\C/C=C\CCCC(=O)C(F)(F)F [1c] | 55% | 45 ± 3.5%
CCCCC/C=C\C/C=C\C/C=C\C/C=C\CCCC(=O)Nc1ccccc1C(=O)O [2o] | 34.5% | 65.5 ± 4%
